The subject of the assay is L-GMP population. Kind of assay: L-GMP and mature myeloid cell proportion in leukemic BM. In kind it is in vivo, mouse. The following applies: seven days following pI-pC, Mx1-Cre+. The procedure: Seven days following the administration of saline or pI-pC, secondary mice transplanted with MLL-AF9-positive FoxO1/3/4^floxed; Mx1-Cre+ leukmic BM cells were euthanized. Leukemic BM cells were then isolated from each treatment condition (Saline (Ctrl) versus pI-pC (pI-pC)) were analyzed for the proportion of L-GMPs (lineage^low, Sca-1^−, cKit^hi, CD34^+, FcgRII/III^+, p=0.039; n=3).
Seven days following the administration of saline or pI-pC, secondary mice transplanted with MLL-AF9-positive FoxO1/3/4^floxed; Mx1-Cre+ leukemic BM cells were euthanized. Leukemic BM cells were then isolated from each treatment condition (Saline (Ctrl) versus pI-pC (pI-pC)) were analyzed for the proportion of mature myeloid cells (lineage^hi, CD11b^+, p=0.0098; n=3)
L-GMP and GMP populations were analyzed and sorted with a BD FACSARIA™ instrument (BD™ Biosciences). To analyze and isolate L-GMPs and GMPs, total BM cells were recovered from flushing the tibias and femurs of leukemic and healthy mice respectively with PBS supplemented with 2% FBS and 1% Penicillin/Streptomycin (F-PBS). […] For Phosphoflow experiments, cells were stained with cKit-Ax750 and CD34-antibodies in combination with phospho-AKT^Ser473-PE, phospho-AKT^Thr308-APC or phospho-S6^Ser235/236-APC antibodies and analyzed on a FACSAria according to the following protocol: • 1. […]

Take polyinosine-polycytidyline [pI-pC]: the L-GMPs result is “immunophenotypic reduction” and the “lineage^hi, CD11b^hi(+) myeloid cells” value is listed as “concomitant increase”.

The values above are taken from US20140206624A1, “TREATMENT OF LEUKEMIA” (THE BRIGHAM AND WOMEN'S HOSPITAL, INC., priority 2011, published 2014).
